In patent publication US7973166B2, “N-(2-aminophenyl)-4-[N-(pyridine-3-yl)-methoxycarbonyl-aminomethyl]-benzamide (MS-275) polymorph B” (Bayer Schering Pharma AG, priority 2008, dated 2011):

Tests used:
[1] = Thermodynamic stability of the solid state forms; assay type: physicochemical; settings: at least in the relevant temperature range below 600 / below 60° C.
[2] = system: DU-145 Human Prostate Carcinoma; assay: DU-145 human prostate carcinoma model in nude mice; assay type: in vivo; settings: orally 10, 20 or 30 mg/kg in 30% HPβCD, tumor growth determined 27 to 56 days after tumor transplantation, versus vehicle control
Description: The active compound was applied in 30% HPβCD. As control, a vehicle of DMSO/ethanol 1.1 in 0.085% Myrj/NaCl/30% HPβCD was used. The tumor growth was determined after 27 to 56 days after tumor transplantation.

Row | SMILES | thermodynamic stability of the polymorph [1] | tumor growth [2]
1 | Nc1ccccc1NC(=O)c1ccc(CNC(=O)OCc2cccnc2)cc1 [polymorph A, N-(2-aminophenyl)-4-[N-(pyridine-3-yl)methoxycarbonylamino-methyl]benzamide, reference compound] | not the thermodynamically stable polymorph | 
2 | Nc1ccccc1NC(=O)c1ccc(CNC(=O)OCc2cccnc2)cc1 [polymorph B, N-(2-aminophenyl)-4-[N-(pyridine-3-yl)methoxy-carbonylamino-methyl]benzamide] | thermodynamically stable polymorph | clear inhibition
